Each compound was assayed against T1, Menin MLL 4-43 (Homo sapiens, UniProt O00255) (assay: Fluorescence polarization (FP) competition assay of the menin-MLL interaction). Conditions: fluorescence polarization competition with fluorescein-labeled MLL peptide.
T1 sequence (O00255 1-610): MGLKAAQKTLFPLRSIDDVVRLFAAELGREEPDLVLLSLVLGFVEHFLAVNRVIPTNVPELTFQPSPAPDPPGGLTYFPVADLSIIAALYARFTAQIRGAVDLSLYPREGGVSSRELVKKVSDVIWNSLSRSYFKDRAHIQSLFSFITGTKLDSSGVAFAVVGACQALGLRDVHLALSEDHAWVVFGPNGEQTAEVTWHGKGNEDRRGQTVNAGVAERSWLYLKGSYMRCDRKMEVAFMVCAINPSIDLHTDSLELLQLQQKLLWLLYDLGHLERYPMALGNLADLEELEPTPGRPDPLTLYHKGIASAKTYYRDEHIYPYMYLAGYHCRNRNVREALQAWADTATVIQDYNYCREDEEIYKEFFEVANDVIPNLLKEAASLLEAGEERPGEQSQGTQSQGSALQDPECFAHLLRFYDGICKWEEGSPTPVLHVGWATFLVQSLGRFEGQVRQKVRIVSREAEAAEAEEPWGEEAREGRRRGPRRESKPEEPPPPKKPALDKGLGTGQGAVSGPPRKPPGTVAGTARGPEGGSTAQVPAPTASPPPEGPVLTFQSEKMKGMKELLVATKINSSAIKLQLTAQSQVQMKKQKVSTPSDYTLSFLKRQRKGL
Format: binding
From the text: This example illustrates an assay effective in monitoring the binding of MLL to menin. […] A fluorescein-labeled peptide containing the high affinity menin binding motif found in MLL was produced according to Yokoyama et al. (Cell, 2005, 123(2): 207-218), herein incorporated by reference in its entirety. Binding of the labeled peptide (1.7 kDa) to the much larger menin (˜67 kDa) is accompanied by a significant change in the rotational correlation time of the fluorophore, resulting in a substantial increase in the fluorescence polarization and fluorescence anisotropy (excitation at 500 nm, emission at 525 nm).

IC50, > 1000 nM:
CNc1nc(N2CC3CCN(Cc4ccc5[nH]c(C#N)cc5c4C)CC3C2)c2cc(CC(F)(F)F)sc2n1 (stereo not drawn) [Compound 157]
CNc1nc(N2CC3CCN(CCc4ccccc4)CC3C2)c2cc(CC(F)(F)F)sc2n1 (stereo not drawn) [Compound 158]
CNc1nc(N2CC3CCN(CCc4ccc5[nH]ccc5c4)CC3C2)c2cc(CC(F)(F)F)sc2n1 (stereo not drawn) [Compound 159]
